In brackets after ≈: the same amount, converted by molar mass.

What all share (type): functional, cell-based
The test system of one assay is IMR-90. Briefly: Cytotoxicity against human IMR90 cells by MTT assay. A general note: Tetrazolium assays rely on reduction of a dye to a coloured formazan, in cell work by metabolically active cells.
The test system of the next assay is DLD-1. The assay is described as follows: Cytotoxicity against human DLD1 cells by MTT assay.
The test system of the next assay is MOLT-4. The assay is described as follows: Cytotoxicity against human MOLT4 cells by MTT assay.

One may read the IC50 as the concentration that inhibits the measured activity by half. High values mean weaker potency, low ones greater potency. For the compound `CCCCC/C=C\C[C@@]1(O)C=C(I)C(=O)[C@@H]1[C@H](/C=C\CCCC(=O)OC)OC(C)=O`, the IC50 with IMR-90 amounted to 4.5 mg/L (≈ 8.45 µM); in the assay with DLD-1 it was 0.6 mg/L (≈ 1.13 µM); in the assay on MOLT-4, 0.52 mg/L (≈ 0.977 µM).

These data come from ChEMBL document CHEMBL1156372, “New halogenated marine prostanoids with cytotoxic activity from the Okinawan soft coral Clavularia viridis” (J Nat Prod, 2001).
